Experimental data reported in publication PMC4744035, “In Vivo, In Vitro, and In Silico Characterization of Peptoids as Antimicrobial Agents” (PLoS ONE, 2016).
≈ marks a conversion by molar mass, not a printed value. Square brackets hold non-standard residues; d marks the D form. Peptide text beside a SMILES is read from it. Nspe = C[C@H](NCC(=O)O)c1ccccc1; Nlys = NCCCCNCC(=O)O

How the values were obtained:
[1] = tested on: B. subtilis ATCC 6633; format: cell-based
Procedure, shortened: (§1)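 MICs determined by 2:1 serial broth microdilution in cation-adjusted Mueller-Hinton broth per CLSI M7-A6, using inoculum at 1 x 10^6 CFU/mL mixed 1:1 with peptoid solution. Three independent replicates, each with two parallel trials.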

[2] = tested on: E. coli ATCC 35218; format: cell-based
Procedure, shortened: as §1

[3] = tested on: NIH 3T3 cells; experiment: Metabolic activity, MTS assay; format: cell-based, mouse
Method: NIH 3T3 mouse fibroblast cells were cultured in complete Dulbecco’s Modified Eagle’s Media. A peptoid solution plate (100 µL per well) was prepared by serial dilution of aqueous peptoid stock solutions in Hank’s balanced salt solution. A day-old cell monolayer was washed thoroughly with Hank’s balanced salt solution and replenished with 100 µL Hank’s balanced salt solution per well. Peptoid solutions were transferred onto the day-old cell monolayers, which contained approximately 5000 cells per well. […] The average of six replicate trials is reported.

[4] = tested on: K. pneumonia 63575 (ESBL); experiment: microbe, parasite or virus in culture
Procedure, shortened: (§2)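 Agents were diluted serially at 10x in acetic acid/BSA, added to Mueller Hinton medium, then inoculated with bacteria at 2–7 x 10^5 CFU/mL. Plates were incubated overnight at 37°C and scored for growth.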

[5] = tested on: E. faecalis F43559 (VRE); experiment: microbe, parasite or virus in culture; conditions: F43559 (VRE)
Procedure, shortened: as §2

[6] = tested on: E. coli 63103 (ESBL); experiment: microbe, parasite or virus in culture; conditions: 63103 (ESBL)
Procedure, shortened: as §2

[7] = tested on: P. aeruginosa LES400 (MDR); experiment: microbe, parasite or virus in culture; conditions: LES400 (MDR)
Procedure, shortened: as §2

[8] = tested on: P. aeruginosa 9 (MDR); experiment: microbe, parasite or virus in culture; conditions: 9 (MDR)
Procedure, shortened: as §2

[9] = tested on: E. cloacae 218R Class C β-lactamase; experiment: microbe, parasite or virus in culture; conditions: 218R Class C β-lactamase
Procedure, shortened: as §2

[10] = tested on: E. faecium mic80 (VRE); experiment: microbe, parasite or virus in culture; conditions: mic80 (VRE)
Procedure, shortened: as §2

[11] = tested on: K. pneumonia 61962 (ESBL); experiment: microbe, parasite or virus in culture
Procedure, shortened: as §2

[12] = tested on: P. aeruginosa 213 (MDR); experiment: microbe, parasite or virus in culture; conditions: 213 (MDR)
Procedure, shortened: as §2

[13] = tested on: E. faecalis ATCC29212; experiment: microbe, parasite or virus in culture; conditions: ATCC29212
Procedure, shortened: as §2

[14] = tested on: P. maltophilia ATCC13637; experiment: microbe, parasite or virus in culture; conditions: ATCC13637
Procedure, shortened: as §2

[15] = tested on: S. aureus C623 (MRSA); experiment: microbe, parasite or virus in culture; conditions: C623
Procedure, shortened: as §2

[16] = tested on: E. faecalis W61950 (VRE); experiment: microbe, parasite or virus in culture; conditions: W61950 (VRE)
Procedure, shortened: as §2

[17] = tested on: S. aureus ATCC25923; experiment: microbe, parasite or virus in culture; conditions: ATCC25923
Procedure, shortened: as §2

[18] = tested on: E. faecium T62764 (VRE); experiment: microbe, parasite or virus in culture; conditions: T62764 (VRE)
Procedure, shortened: as §2

[19] = tested on: P. aeruginosa H1030 (MDR); experiment: microbe, parasite or virus in culture; conditions: P. aeruginosa H1030 (MDR)
Procedure, shortened: as §2

[20] = tested on: P. aeruginosa 198 (MDR); experiment: microbe, parasite or virus in culture; conditions: 198 (MDR)
Procedure, shortened: as §2

[21] = tested on: P. aeruginosa H1027 (MDR); experiment: microbe, parasite or virus in culture; conditions: H1027 (MDR)
Procedure, shortened: as §2

[22] = tested on: P. aeruginosa H103 (wild type); experiment: microbe, parasite or virus in culture; conditions: H103 (wild type)
Procedure, shortened: as §2

[23] = tested on: E. coli 64771 (ESBL); experiment: microbe, parasite or virus in culture; conditions: 64771 (ESBL)
Procedure, shortened: as §2

[24] = tested on: erythrocytes; experiment: Hemolytic activity (HD10/HD50); format: cell-based
From the text: Table 1 Characteristics of antimicrobial peptoids, screened for activity against B. subtilis and E. coli bacterial strains. | column: HD10 / HD50

Compound	MIC E. coli [2]	ID50 (inhibitory dose, metabolic activity) [3]	MIC [4]	MIC [5]	MIC [6]	MIC [7]	MIC [8]	MIC [9]	MIC [10]	MIC [11]	MIC [12]	MIC [13]	MIC [14]	MIC [15]	MIC [16]	MIC [17]	MIC [18]	MIC [19]	MIC [20]	MIC [21]	also measured
H-(NLys-Nspe-Nspe)3-NH2 [Peptoid 1_9mer]	25 µM																				MIC B. subtilis [1]: 1.6 µM
C[C@@H](c1ccccc1)N(CC(N)=O)C(=O)CN(CCCCN)C(=O)CN(CCCCN)C(=O)CN(C(=O)CN(C(=O)CN(CCCCN)C(=O)CN(C(=O)CN(CCCCN)C(=O)CN(CCCCN)C(=O)CN(C(=O)CN(C(=O)CNCCCCN)[C@@H](C)c1ccccc1)[C@@H](C)c1ccccc1)[C@@H](C)c1ccccc1)[C@@H](C)c1ccccc1)[C@@H](C)c1ccccc1 [1-NLys5,11, H-(NLys-Nspe-Nspe-NLys-NLys-Nspe)2-NH2] (H-[Nlys][Nspe][Nspe][Nlys][Nlys][Nspe][Nlys][Nspe][Nspe][Nlys][Nlys][Nspe]-NH2)	50 µM (≈ 87.7 µg/mL)	85 µM	128 µg/mL (≈ 73 µM)	256 µg/mL (≈ 146 µM)	128 µg/mL (≈ 73 µM)	8 µg/mL (≈ 4.56 µM)	64 µg/mL (≈ 36.5 µM)	32 µg/mL (≈ 18.3 µM)	16 µg/mL (≈ 9.13 µM)	256 µg/mL (≈ 146 µM)	8 µg/mL (≈ 4.56 µM)	256 µg/mL (≈ 146 µM)	0.5 µg/mL (≈ 0.285 µM)	64 µg/mL (≈ 36.5 µM)	256 µg/mL (≈ 146 µM)	64 µg/mL (≈ 36.5 µM)	8 µg/mL (≈ 4.56 µM)	64 µg/mL (≈ 36.5 µM)	8 µg/mL (≈ 4.56 µM)	0.13 µg/mL (≈ 0.0741 µM)	MIC [22]: 2 µg/mL (≈ 1.14 µM); MIC [23]: 32 µg/mL (≈ 18.3 µM); HD10 (hemolytic activity) [24]: >100 / >100; HD50 (hemolytic activity) [24]: >100 / >100
C[C@@H](c1ccccc1)N(CC(N)=O)C(=O)CN(C(=O)CN(CCCCN)C(=O)CN(C(=O)CN(C(=O)CN(CCCCN)C(=O)[C@@H]1CCCN1C(=O)CN(C(=O)CN(CCCCN)C(=O)CN(C(=O)CN(C(=O)CNCCCCN)[C@@H](C)c1ccccc1)[C@@H](C)c1ccccc1)[C@@H](C)c1ccccc1)[C@@H](C)c1ccccc1)[C@@H](C)c1ccccc1)[C@@H](C)c1ccccc1 [Peptoid 1-Pro6, H-NLys-Nspe2-NLys-Nspe-L-Pro-(NLys-Nspe2)2-NH2] (H-[Nlys][Nspe][Nspe][Nlys][Nspe]P[Nlys][Nspe][Nspe][Nlys][Nspe][Nspe]-NH2)	12.5 µM (≈ 21.9 µg/mL)	18 µM	32 µg/mL (≈ 18.2 µM)	8 µg/mL (≈ 4.56 µM)	16 µg/mL (≈ 9.12 µM)	8 µg/mL (≈ 4.56 µM)	256 µg/mL (≈ 146 µM)	16 µg/mL (≈ 9.12 µM)	8 µg/mL (≈ 4.56 µM)	64 µg/mL (≈ 36.5 µM)	16 µg/mL (≈ 9.12 µM)	8 µg/mL (≈ 4.56 µM)	2 µg/mL (≈ 1.14 µM)	8 µg/mL (≈ 4.56 µM)	32 µg/mL (≈ 18.2 µM)	4 µg/mL (≈ 2.28 µM)	1 µg/mL (≈ 0.57 µM)	16 µg/mL (≈ 9.12 µM)	16 µg/mL (≈ 9.12 µM)	4 µg/mL (≈ 2.28 µM)	MIC [22]: 8 µg/mL (≈ 4.56 µM); MIC [23]: 8 µg/mL (≈ 4.56 µM); HD10 (hemolytic activity) [24]: 83; HD50 (hemolytic activity) [24]: > 200
